The test system of one test is Maize. Put plainly: Whole Plant Screen (2), maize. The class given is in vivo, Maize (Earliking). The note with it: MZ, 4000 ppm. How it is done: (§1) Compound numbers 12-13, 16-17 and 19-20 were tested on an alternative whole plant screen (2). The compounds were tested for plant growth regulator activity against five species for various growth effects relevant to plant growth regulation.
The plant species used in this screen are presented in Table IV with the leaf stage at which they were sprayed. Each chemical was applied at 4000 ppm (4 kg/ha in a 1000 l/ha field volume) using a tracksprayer and a SS8004E (Teejet) nozzle.
After spray the plants were grown in a glasshouse with 25° C. day 22° C. night temperatures and supplementary lighting was supplied when necessary (from mercury vapour lamps), to provide a 16 hour photoperiod. The exception to this were the temperate cereals, wheat and barley which were grown in 16° C. day 13° C. night temperatures.
(§2) After 2-6 weeks in the glasshouse, depending on the time of year, the plants were visually assessed for morphological characteristics. Formulation blanks were used as controls to assess the plants.
(§3) Compound numbers 1, 5 and 7 (of the present invention) were tested against compounds A, B, C and D (compound Nos. 12, 2, 24 and 50 of Table 1 EP No. 0052424) on whole plant screen (2). The compounds were tested of plant growth regulator activity against five species and for various growth effects relevant to plant growth regulation. The structures are set out in FIG. 1.
The plant species used in this screen are presented in Table XII with the leaf stage at which they were sprayed Each chemical was applied at 4000 ppm (4 kg/ha in a 1000 l/ha field volume) using a tracksprayer and a SS8004E (Teejet) nozzle.
After spray the plants were grown in a glasshouse with 25° C. day/22° C. night temperatures and supplementary lighting was supplied when necessary (from mercury vapour lamps), to provide a 16 hour photoperiod. The exception to this were the temperate cereals, wheat and barley which were grown in 16° C. day/13° C. night temperatures.

Test [1] relates to Rice. Description: Intermediate Retardant Test, rice. The note with it: Oryza sativa, 672 h, ~28 days, read-out: Percentage Reduction in Height of Rice (Compared to formulation blank). In kind it is in vivo, Rice (Ishikari). The protocol:
(§4) Three species are involved in this test RICE, SPRING-BARLEY and APPLES. The variety and growth stages at spray are outlined in Table VI. Compounds were applied at 1000 ppm and 4000 ppm respectively (1 kg and 4 kg ha^-1 at a field volume of 1000 l/ha^-1) as an overall spray. This gives a foliar and root component in the test, i.e. this test will detect the activity of both root and foliar acting compounds. The rice was grown in 4" `paddy` pots, i.e. the roots and bottom of the stems are immersed in water under conditions corresponding to those in paddy fields. Spring barley and apples were grown in 4" pots. The plants were assessed for height to top-most ligule at approximately 28 days after treatment for spring barley and rice and for height to apex at approximately 28 days after the treatment for apples. In each case the result for the 1000 ppm and 4000 ppm test for each compound is compared to the height of the formulation blank in that test, presented as a percentage reduction in height compared to the formulation blank.
as §4, with “in Table XIV. Compounds were” for “in Table VI. Compounds were”, “that test, and presented as” for “that test, presented as”

Test [2] has as its system Wheat. Put plainly: Whole Plant Screen (2), wheat. In kind it is in vivo, Wheat (Timmo). To be noted: WW, 4000 ppm. How it is done:
as §1
The plant species used in this screen are presented in Table IV with the leaf stage at which they were sprayed. Each chemical was applied at 4000 ppm (4 kg/ha in a 1000 l/ha field volume) using a tracksprayer and a SS8004E (Teejet) nozzle. […]
After 2-6 weeks in the glasshouse, depending on the time of year, the plants were visually assessed for morphological characteristics. Formulation blanks were used as controls to assess the plants. […]

Test [3] has as its system plant species of Whole Plant Screen (1) or (2). Put plainly: Across screen comparison: total retardation relative to paclobutrazol (Whole Plant Screens (1) and (2)). In kind it is in vivo. To be noted: for Total Retardation expressed as a percentage of the total retardation caused by paclobutrazol: compounds of EP 0052424, Table XI. The source says: The following Example is a general indicative comparison of compounds from EP No. 0052424 with compounds from the preferred class in the present invention. The compounds have not been side-by-side tested on this Example because of the large numbers involved but the retardant activity can be compared using a standard which has been on each test.
The compounds which are compared in this Example have been tested on one of two tests. These are the Whole Plant Screen (1) and Whole Plant Screen (2) the methods for which are described in Examples 17 and 18 respectively.
An across screen comparison between compounds is made by expressing the total retardation (ie. sum of retardation scores recorded for each species tested) caused by the compound as a percentage of the total retardation caused by the standard in that test. The standard chemical gives a measure of the performance of the test and environmental factors. By expressing the test compound activity as a percentage of the standard compound activity these factors can be eliminated . The same standard has been used in every test and this is paclobutrazol a proprietory growth regulator.

The next test concerns Spring Barley. Description: Intermediate Retardant Test, spring barley. In kind it is in vivo, Spring Barley (Atem/kym). To be noted: Hordeum vulgare, 672 h, ~28 days, read-out: Percentage Reduction in Height of Spring Barley (Compared to formulation blank). How it is done: as §4
as §4, with “in Table XIV. Compounds were” for “in Table VI. Compounds were”, “that test, and presented as” for “that test, presented as”

In test [4] the test system is Rice. Put plainly: Whole Plant Screen (2), rice. To be noted: RC, 4000 ppm. The class given is in vivo, Rice (Ishikari). How it is done:
as §2, §3
(§5) The plant species used in this screen are presented in Table XII with the leaf stage at which they were sprayed Each chemical was applied at 4000 ppm (4 kg/ha in a 1000 l/ha field volume) using a tracksprayer and a SS8004E (Teejet) nozzle. […]

The next test relates to Apples. Description: Intermediate Retardant Test, apples. In kind it is in vivo, Apples (Red Delicious). The note with it: 672 h, ~28 days, read-out: Percentage Reduction in Height of Apples (Compared to formulation blank). How it is done: as §4
as §4, with “in Table XIV. Compounds were” for “in Table VI. Compounds were”, “that test, and presented as” for “that test, presented as”

Another test deals with Barley. Description: Whole Plant Screen (2), barley. The class given is in vivo, Barley (Atem). To be noted: BR, 4000 ppm. The protocol:
as §3, §5

For another test, the system named is Cynosurus cristatus. To be noted: CC, 4000 ppm, 2-3 weeks.
In another test the test system is Tomato. To be noted: TO, 4000 ppm, 2-3 weeks.
The subject of test [5] is Wheat. The note with it: WW, 4000 ppm, 2-3 weeks.

Read-outs that look alike come from different tables or passages of the source.

Protocol for Tomato: The compounds were tested for plant growth regulator activity against up to tweleve plant species for various growth effects relevant to plant growth regulation.
After spray, the plants were grown in a glasshouse with 25° C. day/22° C. night temperatures and supplementary lighting was supplied when necessary (from mercury vapour lamps), to provide a 16 hour photoperiod. The exception to this were the temperate cereals, wheat and barley, which were grown in 16° C. day 13° C. night temperatures
After 2-3 weeks in the glasshouse, depending on the time of year, the plants were visually assessed for morphological characteristics. Formulations blanks were used as controls to assess the Plants.

Turning to `CC(C)(C)C=CC(O)(Cn1cncn1)C(C)(C)C` (stereo not shown) [A, reference compound], in the test with Maize (side-by-side, Table XIII), the “I = Interligular or internodal length reduction” value is recorded as 1 (10-30%) and the “R = Retardation” value was 1 (10-30%). For the same compound, in the test on Rice [1] (side-by-side, Table XVI), the Percent reduction in rice plant height vs formulation blank at 1000 ppm worked out at 4% and the Percent reduction in rice plant height vs formulation blank at 4000 ppm worked out at 20%. The “G = Greening effect” value with Wheat [2] (side-by-side, Table XIII) is on record as 1 (10-30%). Besides, in test [3] (Tables X and XI, across screen comparison), the “range of activity / superiority in comparison with EP 0052424 compounds” value is “higher range of activity than the rest of the compounds”. Further, in [3], the “Total Retardation expressed as a percentage of the total retardation caused by paclobutrazol” value is on record as 62.5 % of paclobutrazol. In the test on Spring Barley (side-by-side, Table XV), the height reduction vs blank at 1000 ppm came to 5% and the height reduction vs blank at 4000 ppm was determined as 13%. Further, in the test with Rice [4] (side-by-side, Table XIII), the “T = Tillering or side shooting” value was 2 (31-60%). For the same compound, in the test on Apples (side-by-side, Table XVII), the percent reduction in plant height vs formulation blank at 1000 ppm came out at 2% and the percent reduction in plant height vs formulation blank at 4000 ppm stood at 14%.
For `CC(C)(C)C(O)(C=Cc1ccc(Cl)cc1)Cn1cncn1` (stereo not shown) [B, reference compound], in the test with Maize (side-by-side, Table XIII), the “I = Interligular or internodal length reduction” value was 1 (10-30%) and the “R = Retardation” value is on record as 1 (10-30%). Moreover, the “T = Tillering or side shooting” value with Barley (side-by-side, Table XIII) was 1 (10-30%). Also, in the test with Rice [1] (side-by-side, Table XVI), the Percent reduction in rice plant height vs formulation blank at 1000 ppm was 3% and the Percent reduction in rice plant height vs formulation blank at 4000 ppm came out at 11%. Further, the “Total Retardation expressed as a percentage of the total retardation caused by paclobutrazol” value in test [3] is 43.1 % of paclobutrazol. In addition, in the test with Spring Barley (side-by-side, Table XV), the height reduction vs blank at 1000 ppm was found to be 8% and the height reduction vs blank at 4000 ppm amounted to 7%. Also, in the test on Rice [4] (side-by-side, Table XIII), the “I = Interligular or internodal length reduction” value was 1 (10-30%) and the “R = Retardation” value was 1 (10-30%). Besides, in the test with Apples (side-by-side, Table XVII), the percent reduction in plant height vs formulation blank at 1000 ppm was found to be 0% and the percent reduction in plant height vs formulation blank at 4000 ppm amounted to 3%.
Consider `CC(C)(C)C(O)(C#Cc1ccc(Cl)cc1)Cn1cncn1` (stereo not shown) [C, reference compound], for which, in the test with Rice [1] (side-by-side, Table XVI), the Percent reduction in rice plant height vs formulation blank at 1000 ppm worked out at 5% and the Percent reduction in rice plant height vs formulation blank at 4000 ppm turned out to be 13%. Moreover, the “Total Retardation expressed as a percentage of the total retardation caused by paclobutrazol” value in test [3] is listed as 7.1 % of paclobutrazol. In the test on Spring Barley (side-by-side, Table XV), the height reduction vs blank at 1000 ppm was determined as 4% and the height reduction vs blank at 4000 ppm was found to be 6%. Also, in the test on Apples (side-by-side, Table XVII), the percent reduction in plant height vs formulation blank at 1000 ppm turned out to be 0% and the percent reduction in plant height vs formulation blank at 4000 ppm was 0%.
Consider `CCCC#CC(O)(Cn1cncn1)C(C)(C)C` (stereo not shown) [Compound 11], for which the “Retardation score (1-3) with greening (G), apical damage (A), tillering/side shooting (T)” value in the test on Cynosurus cristatus is on record as 1 (10-30% retardation); in the test with Tomato it was 2T; in the test on Wheat [5], 1 (10-30% retardation). For the same compound, the height reduction vs blank at 1000 ppm in the test with Spring Barley (Table VIII) came to 24%. For the same compound, the height reduction vs blank at 4000 ppm in the test on Spring Barley (Table VIII) was found to be 49.4%.
For `CCCC#CC(Cn1cncn1)(OC)C(C)(C)C` (stereo not shown) [Compound 12], in the test on Maize (2-6 weeks, Table V), the “I = Interligular or internodal length reduction” value is listed as 1 (10-30%) and the “R = Retardation” value is 1 (10-30%). In the test with Rice [1] (Table VII), the Percent reduction in rice plant height vs formulation blank at 1000 ppm was found to be 23.8% and the Percent reduction in rice plant height vs formulation blank at 4000 ppm came out at 49.7%. In the test on Spring Barley (Table VIII), the height reduction vs blank at 1000 ppm worked out at 2.7% and the height reduction vs blank at 4000 ppm was 12.6%. In addition, in the test with Apples (Table IX), the percent reduction in plant height vs formulation blank at 1000 ppm was 15.7% and the percent reduction in plant height vs formulation blank at 4000 ppm was 33.6%.
Turning to `CCCC#CC(O)(Cn1cncn1)C(C)(C)CCl` (stereo not shown) [Compound 19], the percent reduction in plant height vs formulation blank at 4000 ppm in the test on Apples (Table IX) was 36.6%.
Regarding `CCCCCC#CC(O)(Cn1cncn1)C(C)(C)CF` (stereo not shown) [Compound 20], the “I = Interligular or internodal length reduction” value in the test with Barley (2-6 weeks, Table V) is listed as 1 (10-30%). In the test on Wheat [2] (2-6 weeks, Table V), the “G = Greening effect” value was 2 (31-60%) and the “T = Tillering or side shooting” value is on record as 2 (31-60%). Moreover, the “T = Tillering or side shooting” value with Rice [4] (2-6 weeks, Table V) is 1 (10-30%).
As to `CCCCCCC#CC(O)(Cn1cncn1)C(C)(C)CF` (stereo not shown) [Compound 21], in the test with Apples (Table IX), the percent reduction in plant height vs formulation blank at 1000 ppm came out at 10% and the percent reduction in plant height vs formulation blank at 4000 ppm is 0%.
In the case of `COC(C)(C)C#CC(O)(Cn1cncn1)C(C)(C)C` (stereo not shown) [D, reference compound], in the test on Rice [1] (side-by-side, Table XVI), the Percent reduction in rice plant height vs formulation blank at 1000 ppm was determined as 2% and the Percent reduction in rice plant height vs formulation blank at 4000 ppm turned out to be 7%. In [3], the “Total Retardation expressed as a percentage of the total retardation caused by paclobutrazol” value was 3.6 % of paclobutrazol. Moreover, in the test with Spring Barley (side-by-side, Table XV), the height reduction vs blank at 1000 ppm was determined as 9% and the height reduction vs blank at 4000 ppm amounted to 13%. For the same compound, in the test with Apples (side-by-side, Table XVII), the percent reduction in plant height vs formulation blank at 1000 ppm was 0% and the percent reduction in plant height vs formulation blank at 4000 ppm is 0%.
